Laboratory results: patent US5578725A, “Delta opioid receptor antagonists” (priority 1995, dated 1996)
Several values for one entry are separate records, joined by “and”; a condition that tells them apart may be missing. Identical values can stand only once. Entries after “also recorded” stand apart in the source; their conditions may differ. Counter-ions that a name gives are not always drawn. Like-named read-outs stand apart in the source and are kept apart here.

Assays:
[1] = target: κ opioid receptor (Cavia porcellus, UniProt P41144); conditions: GPI, ethylketazocine, antagonist 100 nM
[2] = tested on: δ1; assay: biochemical; assay type: binding, guinea pig; conditions: for preference between δ1 and δ2 putative binding sites (in words): [3H]DPDPE vs [3H]DSLET
Protocol: (§1) The opioid receptor affinities of the target compounds were determined on guinea pig membranes employing a modification of the method of Werling et al., J. Pharmacol. Exp. Ther., 233, 722 (1986).

[3] = target: T1, δ1 (Cavia porcellus, UniProt A0A286XTF2); assay: biochemical; assay type: binding, guinea pig
T1 construct: Guinea Pig Brain Membranes; from tissue; host or cells: guinea pig brain membranes
Protocol: as §1

[4] = target: T2, δ2 (Cavia porcellus, UniProt A0A286XTF2); assay: biochemical; assay type: binding, guinea pig
T2 construct: Guinea Pig Brain Membranes; from tissue; host or cells: guinea pig brain membranes
Protocol: as §1

[5] = target: δ opioid receptors (Mus musculus, UniProt P32300); assay: Antagonism of DADLE (δ) in electrically stimulated mouse vas deferens (MVD) preparation; conditions: for Kb: Ke (nM); for IC50 ratio DADLE(δ): 15 min preincubation
[6] = target: μ opioid receptor (Cavia porcellus, UniProt A0ACM8Q262); conditions: GPI, morphine, antagonist 100 nM
[7] = target: T3, κ (Cavia porcellus, UniProt P41144); assay: Binding to κ sites, competition with [3H]U69593, guinea pig brain membranes; conditions: geometric mean of three replicates
T3 construct: Guinea Pig Brain Membranes; from tissue; host or cells: guinea pig brain membranes
Protocol: as §1

[8] = tested on: rats; conditions: compared to peptidyl delta-opioid receptor antagonists; Ser. No. 07/750,109; cited from earlier work
[9] = tested on: δ2; conditions: Jiang et al.; Korlipara et al.; cited from earlier work
[10] = compared with 2 or 3; cited from earlier work
[11] = target: δ1 (Mus musculus, UniProt P32300); conditions: for ED50 Ratio (95% C.L.): ED50 with antagonist/control ED50, DPDPE i.c.v.; for antagonist potency, central vs peripheral delivery (in words): central (i.c.v.) vs peripheral (i.v.); for Dose required to double the ED50 of DPDPE, i.c.v. / Dose required to double the ED50 of DPDPE, i.v.: antagonist dose/(ED50 ratio - 1); for antagonism of DPDPE antinociception (in words): i.v. or i.c.v., mice
[12] = target: T4, κ (Mus musculus, UniProt P33534); assay type: in vivo, male Swiss-Webster mice; conditions: for ED50 Ratio (95% C.L.): mouse, in vivo
T4 construct: male Swiss-Webster mice; from tissue; host or cells: living mouse (male Swiss-Webster)

[13] = target: T5, δ2 (Mus musculus, UniProt P32300); assay: Tail-flick assay, antagonism of DSLET (δ2) antinociception; assay type: in vivo, male Swiss-Webster mice; conditions: for ED50 Ratio (95% C.L.): ED50 with antagonist/control ED50, DSLET i.c.v., antagonist 20 pmol/kg i.c.v.
T5 construct: male Swiss-Webster mice; from tissue; host or cells: living mouse (male Swiss-Webster)

[14] = target: T6, μ (Mus musculus, UniProt P42866); assay: Tail-flick assay, antagonism of morphine (μ) antinociception; assay type: in vivo, male Swiss-Webster mice; conditions: for ED50 Ratio (95% C.L.): ED50 with antagonist/control ED50, morphine s.c., antagonist 20 pmol/kg i.c.v.
T6 construct: male Swiss-Webster mice; from tissue; host or cells: living mouse (male Swiss-Webster)

[15] = tested on: δ2; assay: biochemical; assay type: binding, guinea pig; conditions: DSLET vs DPDPE
Protocol: as §1

[16] = using calculated IC50 ratio (238) based on 100 nM of 7
[17] = MVD, DADLE, Ke = [antagonist]/(IC50 ratio - 1), antagonist 100 nM
[18] = MVD DADLE IC50 ratio / GPI EK IC50 ratio
[19] = MVD DADLE IC50 ratio / GPI morphine IC50 ratio

Row | SMILES | IC50 ratio EK (κ) [1] | Ki Selectivity Ratio δ1/δ2 [2] | Ki Selectivity Ratio κ/δ1 [2] | Ki Selectivity Ratio μ/δ1 [2] | Ki [3] [nM] | Ki [4] [nM] | IC50 ratio M(μ) [6] | Kb [5, 17] | IC50 Selectivity Ratio δ/κ [5, 18] | IC50 Selectivity Ratio δ/μ [5, 19] | IC50 ratio DADLE(δ) ([5]; MVD, antagonist 100 nM) | further results
1 | O=C(O)c1cccc2c3c([nH]c12)[C@@H]1Oc2c(O)ccc4c2[C@@]12CCN(CC1CC1)[C@H](C4)[C@]2(O)C3 [Compound 7, 7'-Carboxy-17-(cyclopropylmethyl)-6,7-dehydro-3,14-dihydroxy-4,5α-epoxy-6,7,2',3'-indolomorphinan hydrochloride] | 1.0 ± 0.2 | 0.8 | 3246 | 1846 | 0.013 | 0.016 | 2.0 ± 0.3 |  |  |  |  | affinity for δ1 sites relative to NTI (times greater) [3]: 6 times; affinity for δ sites (in words) ([3]; δ1 and δ2 sites, guinea pig membranes): high affinity for δ sites; δ opioid receptor antagonist potency (in words) [5]: δ antagonist potency approaching that of NTI; Kb ([5]; MVD, DADLE, concentration of 7 was 10 nM): 0.4 nM; calculated IC50 ratio based on 100 nM of 7 ([5]; MVD, DADLE, calculated for 100 nM): 238; IC50 Selectivity Ratio δ/κ [5, 16]: 231; IC50 Selectivity Ratio δ/μ [5, 16]: 122; Ki [7]: 42 nM
2 | Oc1ccc2c3c1O[C@H]1c4oc5ccccc5c4C[C@@]4(O)[C@@H](C2)N(CC2CC2)CC[C@]314 [naltriben (NTB), naltriben] |  |  |  |  |  |  |  |  |  |  |  | suppression of ethanol drinking (in words) [8]: unexpectedly prolonged suppression of ethanol drinking; in vivo δ subtype selectivity (in words) [9]: δ2 -selective antagonists; lipophilicity (in words) [10]: considerably more lipophilic than 2 or 3
3 | NCCCC[C@H](NC(=O)c1cccc2c3c([nH]c12)[C@@H]1Oc2c(O)ccc4c2[C@@]12CCN(CC1CC1)[C@H](C4)[C@]2(O)C3)C(=O)O [Compound 6, 7'-(N(α)-Carboxamido-L-lysine)-17-(cyclopropylmethyl)-6,7-dehydro-3,14dihydroxy-4,5α-epoxy-6,7,2',3'-indolomorphinan hydrochloride] | 1.1 ± 0.0 | 0.4 | 134 | 719 | 0.3 | 0.75 | 1.0 ± 0.4 | 5.2 nM and 1 to 5 nM | 20 | 20 | 20 ± 4 | preference between δ1 and δ2 putative binding sites (in words) ([2]; hydrochloride): modest preference for [^3 H]DPDPE sites; also recorded: modest preference for δ1 over δ2 sites
4 | N=C(N)NCCC[C@H](NC(=O)c1cccc2c3c([nH]c12)[C@@H]1Oc2c(O)ccc4c2[C@@]12CCN(CC1CC1)[C@H](C4)[C@]2(O)C3)C(=O)O [Compound 5, 7'-(Carboxamido-L-arginine)-17-(cyclopropylmethyl)-6,7-dehydro-3,14-dihydroxy-4,5α-epoxy-6,7,2',3'-indolomorphinan hydrochloride] | 1.2 ± 0.5 | 1.9 | 1181 | 2096 | 0.16 | 0.083 | 1.3 ± 0.6 | 3.3 nM and 1 to 5 nM | 27 | 24 | 31 ± 5 | 
5 | O=C(O)C[C@H](NC(=O)c1cccc2c3c([nH]c12)[C@@H]1Oc2c(O)ccc4c2[C@@]12CCN(CC1CC1)[C@H](C4)[C@]2(O)C3)C(=O)O [Compound 3, 7'-(Carboxamido-L-aspartate)-17-(cyclopropylmethyl)-6,7-dehydro-3,14-dihydroxy-4,5α-epoxy-6,7,2',3'-indolomorphinan hydrochloride] | 2.1 ± 0.6 | 0.3 | 6246 | 2574 | 0.14 | 0.41 | 1.3 ± 0.5 | 1.1 nM and 1 to 5 nM | 43 | 67 | 89 ± 20 | ED50 Ratio (95% C.L.) ([11]; antagonist 0.8 μmol/kg i.v.): 2.3 (1.7-3.1); ED50 Ratio (95% C.L.) ([11]; antagonist 20 omol/kg (i.c.v.) as printed): 2.6 (2.0-3.6); antagonist potency, central vs peripheral delivery (in words) [11]: highly potent δ opioid antagonists when administered centrally, and many orders of magnitude less potent when delivered by the peripheral route; Dose required to double the ED50 of DPDPE, i.c.v. [11]: 12.5 pmol/kg; antagonism of DPDPE antinociception (in words) [11]: selectively antagonized DPDPE; Dose required to double the ED50 of DPDPE, i.v. [11]: 0.62 µmol/kg; in vivo δ subtype selectivity (in words) ([11]; mouse, in vivo): antagonized the δ1 agonist, DPDPE, but not the δ2 agonist, DSLET; Ratio (i.v./i.c.v.) of doses required to produce equivalent antagonism of DPDPE-induced antinociception ([11]; mouse, in vivo, hydrochloride): 49,600 and > 49,000; i.v./i.c.v. dose ratio relative to that of NTI (times greater) [11]: 7; preference between δ1 and δ2 putative binding sites (in words) ([2]; hydrochloride): modest preference for [^3 H]DPDPE sites; also recorded: modest preference for δ1 over δ2 sites; ED50 Ratio (95% C.L.) [12]: 0.7 (0.4-1.2); ED50 Ratio (95% C.L.) [13]: 0.5 (0.3-1.1); ED50 Ratio (95% C.L.) [14]: 1.0 (0.7-1.5)
6 | NCCC[C@H](NC(=O)c1cccc2c3c([nH]c12)[C@@H]1Oc2c(O)ccc4c2[C@@]12CCN(CC1CC1)[C@H](C4)[C@]2(O)C3)C(=O)O [Compound 4, 7'-(Carboxamido L-ornithine)-17-(cyclopropylmethyl)-6,7-dehydro-3,14-dihydroxy-4,5α-epoxy-6,7,2',3'-indolomorphinan hydrochloride] | 0.9 ± 0.0 | 11.3 | 320 | 756 | 0.18 | 0.015 | 3.0 ± 1 | 1.8 nM and 1 to 5 nM | 63 | 20 | 58 ± 15 | preference between δ1 and δ2 putative binding sites (in words) [2]: greater affinity for δ2 relative to δ1 putative binding sites; factor by which compound competed more effectively with [3H]DSLET than with [3H]DPDPE for δ sites [15]: 8-10
7 | Oc1ccc2c3c1OC1c4c(c5ccccc5n4Cc4ccccc4)CC4(O)C(C2)N(CC2CC2)CCC314 (stereo not drawn) [benzylnaltrindole] |  |  |  |  |  |  |  |  |  |  |  | in vivo δ subtype selectivity (in words) [9]: δ2 -selective antagonists; lipophilicity (in words) [10]: considerably more lipophilic than 2 or 3
8 | O=C(O)CNC(=O)c1cccc2c3c([nH]c12)[C@@H]1Oc2c(O)ccc4c2[C@@]12CCN(CC1CC1)[C@H](C4)[C@]2(O)C3 [Compound 2, 7'-(Carboxamidoglycine)-17-(cyclopropylmethyl)-6,7-dehydro-3,14-dihydroxy-4,5α-epoxy-6,7,2',3'-indolomorphinan hydrochloride] | 1.1 ± 0.2 | 8.2 |  |  |  |  | 1.5 ± 0.1 | 3.2 nM and 1 to 5 nM | 30 | 21 | 32 ± 8 | ED50 Ratio (95% C.L.) ([11]; antagonist 20 pmol/kg i.c.v.): 5.3 (3.6-7.7); ED50 Ratio (95% C.L.) ([11]; antagonist 0.9 μmol/kg i.v.): 2.7 (1.9-4.0); antagonist potency, central vs peripheral delivery (in words) [11]: highly potent δ opioid antagonists when administered centrally, and many orders of magnitude less potent when delivered by the peripheral route; Dose required to double the ED50 of DPDPE, i.c.v. [11]: 4.7 pmol/kg; antagonism of DPDPE antinociception (in words) [11]: effectively antagonized the antinociceptive effect of the δ1 agonist, DPDPE; Dose required to double the ED50 of DPDPE, i.v. [11]: 0.53 µmol/kg; in vivo δ subtype selectivity (in words) ([11]; mouse, in vivo): antagonized the δ1 agonist, DPDPE, but not the δ2 agonist, DSLET; i.v./i.c.v. dose ratio relative to that of NTI (times greater) [11]: 15; preference between δ1 and δ2 putative binding sites (in words) [2]: greater affinity for δ2 relative to δ1 putative binding sites; affinity for δ1 sites relative to NTI (times greater) [3]: 2 times; factor by which compound competed more effectively with [3H]DSLET than with [3H]DPDPE for δ sites [15]: 8-10; antagonism of U50488 antinociception (in words) ([12]; mice): No significant antagonism; ED50 Ratio (95% C.L.) [12]: 0.8 (0.7-0.9); ED50 Ratio (95% C.L.) [13]: 1.1 (0.8-1.6); antagonism of DSLET antinociception (in words) ([13]; mice): No significant antagonism; ED50 Ratio (95% C.L.) [14]: 0.9 (0.8-1.1); antagonism of morphine antinociception (in words) ([14]; mice): No significant antagonism; Ki [7]: 162 nM
